{"source": "patent US20160220569A1", "about": "“CDK4/6 Inhibitor Dosage Formulations For The Protection Of Hematopoietic Stem And Progenitor Cells During Chemotherapy” (G1 Therapeutics, Inc., priority 2015, published 2016)", "test": "Single escalating dose IV infusion pharmacokinetics in healthy volunteers (noncompartmental)", "type": "in vivo, human", "conditions": "both sexes, human, plasma, iv; for concentration at 24.5 h: read-out: concentration at 24.5 hours after the start of infusion; for concentration at 0.25 h / concentration at 0.5 h / concentration at 0.75 h / concentration at 1 h / concentration at 2.5 h / concentration at 3.5 h / concentration at 8.5 h / concentration at 12.5 h / concentration at 6.5 h: r7-9=Subjects 1-3,r11=Mean,r13=Min,r14=Median,r15=Max,r17=Geometric Mean; for concentration at 0.5 h: Time 0.50 h", "experimental": "Forty-five subjects have enrolled in the study.\nAnalysis of plasma concentration versus time data for calculation of standard pharmacokinetic (PK) parameters following intravenous infusion administration was conducted using Phoenix WinNonlin version 6.3 using a nominal infusion duration and scheduled blood sampling times. Random subject numbers were assigned by the bioanalytical laboratory to retain the blind.\n(§1) Analysis of plasma concentration versus time data for calculation of standard pharmacokinetic (PK) parameters following intravenous infusion administration was conducted using Phoenix WinNonlin version 6.3 using a nominal infusion duration and scheduled blood sampling times.\nas §1", "key": {"[1]": {"conditions": "6 mg/m^2, Compound 1 Concentration, Cohort 1, 6 mg/m^2 IV"}, "[2]": {"conditions": "12 mg/m^2, Compound 1 Concentration, Cohort 2, 12 mg/m^2 IV"}, "[3]": {"conditions": "24 mg/m2, Cohort 3, 24 mg/m^2 IV, r6-8=Subjects 1-3,r10=Mean,r12=Min,r13=Median,r14=Max,r16=Geometric Mean"}}, "note": "Like-named read-outs stand apart in the source and are kept apart here.", "data": [{"smiles": "CN1CCN(c2ccc(Nc3ncc4cc5n(c4n3)C3(CCCCC3)CNC5=O)nc2)CC1", "note": "[Compound 1, 2′-((5-(4-methylpiperazin-1-yl)pyridin-2-yl)amino)-7′,8′-dihydro-6′H-spiro[cyclohexane-1,9′-pyrazino[1′,2′:1,5]pyrrolo[2,3-d]pyrimidin]-6′-one]", "values": [{"measurement": "concentration at 24.5 h", "setting": "6 mg/m^2, Cohort 1, 6 mg/m^2 IV, 1 of 3 subjects measurable", "result": 0.595, "unit": "ng/mL"}, {"measurement": "concentration at 0.25 h", "setting": "[1]", "result": 49, "unit": "ng/mL"}, {"measurement": "concentration at 0.5 h", "setting": "[1]", "result": 46.9, "unit": "ng/mL"}, {"measurement": "concentration at 0.75 h", "setting": "[1]", "result": 16.3, "unit": "ng/mL"}, {"measurement": "concentration at 1 h", "setting": "6 mg/m^2, Compound 1 Concentration, Cohort 1, 6 mg/m^2 IV, Time 1.00 h", "result": 11.8, "unit": "ng/mL"}, {"measurement": "concentration at 2.5 h", "setting": "6 mg/m^2, Compound 1 Concentration, Cohort 1, 6 mg/m^2 IV, Time 2.50 h", "result": 4.69, "unit": "ng/mL"}, {"measurement": "concentration at 3.5 h", "setting": "6 mg/m^2, Compound 1 Concentration, Cohort 1, 6 mg/m^2 IV, Time 3.50 h", "result": 3.75, "unit": "ng/mL"}, {"measurement": "concentration at 8.5 h", "setting": "6 mg/m^2, Compound 1 Concentration, Cohort 1, 6 mg/m^2 IV, Time 8.50 h", "result": 1.39, "unit": "ng/mL"}, {"measurement": "concentration at 12.5 h", "setting": "6 mg/m^2, Compound 1 Concentration, Cohort 1, 6 mg/m^2 IV, Time 12.50 h", "result": 0.752, "unit": "ng/mL"}, {"measurement": "AUC(0-inf)", "setting": "12 mg/m2, Cohort 2, 12 mg/m^2 IV, mean, read-out: AUCinf averaged", "result": 148, "unit": "ng·h/mL"}, {"measurement": "Cmax", "setting": "12 mg/m2, Cohort 2, 12 mg/m^2 IV, mean, read-out: Cmax averaged", "result": 122, "unit": "ng/mL"}, {"measurement": "half-life", "setting": "12 mg/m2, Cohort 2, 12 mg/m^2 IV, mean, read-out: Half-lives averaged (converted)", "result": 8.22, "unit": "h"}, {"measurement": "Tmax", "setting": "12 mg/m2, Cohort 2, 12 mg/m^2 IV, median, read-out: median Tmax", "result": 0.5, "unit": "h"}, {"measurement": "MRT inf", "setting": "12 mg/m2, Cohort 2, 12 mg/m^2 IV, r6-8=Subjects 1-3,r10=Mean,r12=Min,r13=Median,r14=Max,r16=Geometric Mean", "result": 5.56, "unit": "h"}, {"measurement": "AUC(0-inf)", "setting": "12 mg/m2, Cohort 2, 12 mg/m^2 IV, r6-8=Subjects 1-3,r10=Mean,r12=Min,r13=Median,r14=Max,r16=Geometric Mean, read-out: AUCinf", "result": 148, "unit": "ng·h/mL"}, {"measurement": "Cmax", "setting": "12 mg/m2, Cohort 2, 12 mg/m^2 IV, r6-8=Subjects 1-3,r10=Mean,r12=Min,r13=Median,r14=Max,r16=Geometric Mean, read-out: Cmax", "result": 122, "unit": "ng/mL"}, {"measurement": "Tmax", "setting": "12 mg/m2, Cohort 2, 12 mg/m^2 IV, r6-8=Subjects 1-3,r10=Mean,r12=Min,r13=Median,r14=Max,r16=Geometric Mean, read-out: Tmax", "result": 0.417, "unit": "h"}, {"measurement": "half-life", "setting": "12 mg/m2, Cohort 2, 12 mg/m^2 IV, r6-8=Subjects 1-3,r10=Mean,r12=Min,r13=Median,r14=Max,r16=Geometric Mean, read-out: t½ (converted)", "result": 8.22, "unit": "h"}, {"measurement": "half-life", "setting": "12 mg/m2, Cohort 2, 12 mg/m^2 IV, range over subjects, read-out: Half-lives range", "result": "7.56 to 8.89", "unit": "h"}, {"measurement": "concentration at 24.5 h", "setting": "12 mg/m^2, Cohort 2, 12 mg/m^2 IV, range over 3 subjects", "result": "0.506 to 1.06", "unit": "ng/mL"}, {"measurement": "concentration at 0.25 h", "setting": "[2]", "result": 115, "unit": "ng/mL"}, {"measurement": "concentration at 0.5 h", "setting": "[2]", "result": 102, "unit": "ng/mL"}, {"measurement": "concentration at 0.75 h", "setting": "[2]", "result": 33.2, "unit": "ng/mL"}, {"measurement": "concentration at 1 h", "setting": "12 mg/m^2, Compound 1 Concentration, Cohort 2, 12 mg/m^2 IV, Time 1.0 h", "result": 23.9, "unit": "ng/mL"}, {"measurement": "concentration at 2.5 h", "setting": "12 mg/m^2, Compound 1 Concentration, Cohort 2, 12 mg/m^2 IV, Time 2.5 h", "result": 8.75, "unit": "ng/mL"}, {"measurement": "concentration at 3.5 h", "setting": "12 mg/m^2, Compound 1 Concentration, Cohort 2, 12 mg/m^2 IV, Time 3.5 h", "result": 7.89, "unit": "ng/mL"}, {"measurement": "concentration at 6.5 h", "setting": "[2]", "result": 3.99, "unit": "ng/mL"}, {"measurement": "concentration at 8.5 h", "setting": "12 mg/m^2, Compound 1 Concentration, Cohort 2, 12 mg/m^2 IV, Time 8.5 h", "result": 2.79, "unit": "ng/mL"}, {"measurement": "concentration at 12.5 h", "setting": "12 mg/m^2, Compound 1 Concentration, Cohort 2, 12 mg/m^2 IV, Time 12.5 h", "result": 1.65, "unit": "ng/mL"}, {"measurement": "AUC(0-inf)", "setting": "24 mg/m2, Cohort 3, 24 mg/m^2 IV, mean, read-out: AUCinf averaged", "result": 287, "unit": "ng·h/mL"}, {"measurement": "Cmax", "setting": "24 mg/m2, Cohort 3, 24 mg/m^2 IV, mean, read-out: Cmax averaged", "result": 252, "unit": "ng/mL"}, {"measurement": "half-life", "setting": "24 mg/m2, Cohort 3, 24 mg/m^2 IV, mean, read-out: Half-lives averaged (converted)", "result": 9.88, "unit": "h"}, {"measurement": "Tmax", "setting": "24 mg/m2, Cohort 3, 24 mg/m^2 IV, median, read-out: median Tmax", "result": 0.5, "unit": "h"}, {"measurement": "AUC(0-t)", "setting": "[3]", "result": 261, "unit": "ng·h/mL"}, {"measurement": "MRT inf", "setting": "[3]", "result": 6.65, "unit": "h"}, {"measurement": "AUC(0-inf)", "setting": "24 mg/m2, Cohort 3, 24 mg/m^2 IV, r6-8=Subjects 1-3,r10=Mean,r12=Min,r13=Median,r14=Max,r16=Geometric Mean, read-out: AUCinf", "result": 287, "unit": "ng·h/mL"}, {"measurement": "Cmax", "setting": "24 mg/m2, Cohort 3, 24 mg/m^2 IV, r6-8=Subjects 1-3,r10=Mean,r12=Min,r13=Median,r14=Max,r16=Geometric Mean, read-out: Cmax", "result": 252, "unit": "ng/mL"}, {"measurement": "Tmax", "setting": "24 mg/m2, Cohort 3, 24 mg/m^2 IV, r6-8=Subjects 1-3,r10=Mean,r12=Min,r13=Median,r14=Max,r16=Geometric Mean, read-out: Tmax", "result": 0.5, "unit": "h"}, {"measurement": "half-life", "setting": "24 mg/m2, Cohort 3, 24 mg/m^2 IV, r6-8=Subjects 1-3,r10=Mean,r12=Min,r13=Median,r14=Max,r16=Geometric Mean, read-out: t½ (converted)", "result": 9.88, "unit": "h"}, {"measurement": "half-life", "setting": "24 mg/m2, Cohort 3, 24 mg/m^2 IV, range over subjects, read-out: Half-lives range", "result": "7.85 to 13.1", "unit": "h"}, {"measurement": "concentration at 24.5 h", "setting": "24 mg/m^2, Cohort 3, 24 mg/m^2 IV, range over 3 subjects", "result": "0.87 to 2.91", "unit": "ng/mL"}, {"measurement": "concentration at 1 h", "setting": "24 mg/m^2, Compound 1 Concentration, Cohort 3, 24 mg/m^2 IV, Time 1.0 h", "result": 39.2, "unit": "ng/mL"}, {"measurement": "concentration at 2.5 h", "setting": "24 mg/m^2, Compound 1 Concentration, Cohort 3, 24 mg/m^2 IV, Time 2.5 h", "result": 15, "unit": "ng/mL"}, {"measurement": "concentration at 3.5 h", "setting": "24 mg/m^2, Compound 1 Concentration, Cohort 3, 24 mg/m^2 IV, Time 3.5 h", "result": 11.6, "unit": "ng/mL"}, {"measurement": "concentration at 6.5 h", "setting": "24 mg/m^2, Compound 1 Concentration, Cohort 3, 24 mg/m^2 IV", "result": 6.7, "unit": "ng/mL"}, {"measurement": "concentration at 8.5 h", "setting": "24 mg/m^2, Compound 1 Concentration, Cohort 3, 24 mg/m^2 IV, Time 8.5 h", "result": 4.91, "unit": "ng/mL"}, {"measurement": "AUC(0-inf)", "setting": "48 mg/m2, Cohort 4, 48 mg/m^2 IV, mean, read-out: AUCinf averaged", "result": 499, "unit": "ng·h/mL"}]}]}
